Data: patent publication US20240124412A1, “IKAROS ZINC FINGER FAMILY DEGRADERS AND USES THEREOF” (Gilead Sciences, Inc., priority 2021, published 2024)

Experiments:
[1] = target: T1, IKZF1 (Homo sapiens, UniProt Q13422+Q96SW2); assay: HiBiT protein tagging assay, in vitro IKZF1 degradation (HEK293); assay type: cell-based; conditions: HEK293, 18-24 hr incubation, normalized to DMSO control; for Dmax: read-out: IKZF1 Dmax (maximum degradation at the highest concentration tested); for DC50: read-out: IKZF1 EC50
T1 construct: expressed in transfected cells
Method in brief: (§1)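 Flp-In T-REx HEK293 pools stably expressing C-terminal HiBiT-tagged IKZF1 or IKZF2 were induced overnight with 1 μg/ml doxycycline. Cells were then treated with serially diluted compound for 18-24 hr at 37 °C and read by Nano-Glo lytic luminescence. Data were normalized to 0.5% DMSO as POC; EC50 and Dmax (maximum degradation at highest concentration tested) reported.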

[2] = target: T2, IKZF2 (Homo sapiens, UniProt Q96SW2+Q9UKS7); assay: HiBiT protein tagging assay, in vitro IKZF2 degradation (HEK293); assay type: cell-based; conditions: HEK293, 18-24 hr incubation, normalized to DMSO control; for Dmax: HEK293, HiBiT assay, read-out: IKZF2 Dmax (maximum degradation at the highest concentration tested); for DC50: HiBiT assay, read-out: IKZF2 EC50
T2 construct: expressed in transfected cells
Method in brief: as §1

T2 sequence (Q9UKS7 1-500 isoform Q9UKS7-2): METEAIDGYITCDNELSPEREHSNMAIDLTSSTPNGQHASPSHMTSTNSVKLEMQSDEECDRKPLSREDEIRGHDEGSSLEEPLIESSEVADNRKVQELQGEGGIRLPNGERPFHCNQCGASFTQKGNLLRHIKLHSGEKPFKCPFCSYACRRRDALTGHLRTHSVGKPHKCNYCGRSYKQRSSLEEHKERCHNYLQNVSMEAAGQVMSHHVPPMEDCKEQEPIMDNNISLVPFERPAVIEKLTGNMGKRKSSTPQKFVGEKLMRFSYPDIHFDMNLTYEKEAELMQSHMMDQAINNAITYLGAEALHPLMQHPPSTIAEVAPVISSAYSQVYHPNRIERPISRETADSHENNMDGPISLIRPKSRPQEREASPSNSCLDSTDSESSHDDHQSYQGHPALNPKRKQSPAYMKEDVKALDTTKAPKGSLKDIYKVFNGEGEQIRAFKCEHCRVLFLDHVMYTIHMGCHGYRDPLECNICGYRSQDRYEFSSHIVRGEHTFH
T2 sequence (Q96SW2 whole entry): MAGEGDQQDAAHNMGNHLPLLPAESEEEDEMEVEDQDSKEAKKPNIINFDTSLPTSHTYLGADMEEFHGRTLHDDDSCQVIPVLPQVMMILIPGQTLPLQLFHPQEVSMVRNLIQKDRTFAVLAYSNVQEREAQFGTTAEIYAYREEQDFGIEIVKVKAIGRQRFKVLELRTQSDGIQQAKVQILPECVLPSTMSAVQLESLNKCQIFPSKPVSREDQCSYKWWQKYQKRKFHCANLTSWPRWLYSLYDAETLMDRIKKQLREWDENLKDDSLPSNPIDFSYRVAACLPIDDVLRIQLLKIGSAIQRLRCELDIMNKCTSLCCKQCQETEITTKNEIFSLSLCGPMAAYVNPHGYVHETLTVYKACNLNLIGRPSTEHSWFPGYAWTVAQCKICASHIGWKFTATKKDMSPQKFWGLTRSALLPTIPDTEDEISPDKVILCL
T2 sequence (Q16531 whole entry partner): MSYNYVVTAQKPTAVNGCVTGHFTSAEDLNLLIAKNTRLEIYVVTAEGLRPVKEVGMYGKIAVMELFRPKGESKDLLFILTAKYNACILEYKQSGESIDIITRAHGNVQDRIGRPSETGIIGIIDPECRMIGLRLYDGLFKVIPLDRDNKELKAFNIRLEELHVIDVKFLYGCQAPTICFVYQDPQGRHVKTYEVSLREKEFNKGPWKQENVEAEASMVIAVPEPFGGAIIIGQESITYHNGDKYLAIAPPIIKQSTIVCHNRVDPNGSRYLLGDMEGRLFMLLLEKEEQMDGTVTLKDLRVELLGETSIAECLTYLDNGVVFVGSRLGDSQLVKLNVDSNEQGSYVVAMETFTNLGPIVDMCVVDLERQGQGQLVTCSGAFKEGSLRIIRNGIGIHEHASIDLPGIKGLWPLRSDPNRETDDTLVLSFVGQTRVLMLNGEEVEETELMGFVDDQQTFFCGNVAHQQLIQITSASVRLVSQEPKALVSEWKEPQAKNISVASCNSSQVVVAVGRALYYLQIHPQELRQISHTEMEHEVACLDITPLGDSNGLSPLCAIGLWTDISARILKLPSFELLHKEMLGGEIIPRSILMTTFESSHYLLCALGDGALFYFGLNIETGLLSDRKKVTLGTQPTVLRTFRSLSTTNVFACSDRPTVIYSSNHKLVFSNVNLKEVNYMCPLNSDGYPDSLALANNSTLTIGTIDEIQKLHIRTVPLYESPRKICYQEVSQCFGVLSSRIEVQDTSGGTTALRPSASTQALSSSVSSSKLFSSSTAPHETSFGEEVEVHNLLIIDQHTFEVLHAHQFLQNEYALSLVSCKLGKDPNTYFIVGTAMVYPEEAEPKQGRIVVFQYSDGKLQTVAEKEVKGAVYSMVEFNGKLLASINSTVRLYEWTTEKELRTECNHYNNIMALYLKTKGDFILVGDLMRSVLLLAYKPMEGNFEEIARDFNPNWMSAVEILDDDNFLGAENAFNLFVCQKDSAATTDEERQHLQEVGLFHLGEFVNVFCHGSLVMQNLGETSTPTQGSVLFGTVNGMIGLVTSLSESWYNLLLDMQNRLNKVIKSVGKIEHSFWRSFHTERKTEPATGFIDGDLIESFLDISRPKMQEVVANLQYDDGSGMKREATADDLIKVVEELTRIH
T1 sequence (Q13422 whole entry): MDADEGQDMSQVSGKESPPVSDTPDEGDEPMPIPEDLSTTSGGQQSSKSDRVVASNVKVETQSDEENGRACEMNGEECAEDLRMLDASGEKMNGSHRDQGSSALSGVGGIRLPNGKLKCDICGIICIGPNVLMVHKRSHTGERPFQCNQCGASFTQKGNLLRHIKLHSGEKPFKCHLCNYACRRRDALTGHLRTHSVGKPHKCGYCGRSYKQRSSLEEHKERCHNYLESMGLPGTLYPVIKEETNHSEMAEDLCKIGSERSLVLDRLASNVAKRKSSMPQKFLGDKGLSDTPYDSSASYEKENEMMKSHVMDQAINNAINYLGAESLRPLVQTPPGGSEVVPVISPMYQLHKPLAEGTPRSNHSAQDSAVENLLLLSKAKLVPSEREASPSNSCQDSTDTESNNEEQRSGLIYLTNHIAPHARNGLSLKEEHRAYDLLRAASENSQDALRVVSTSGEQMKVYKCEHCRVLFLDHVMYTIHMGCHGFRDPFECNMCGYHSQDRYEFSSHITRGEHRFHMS
T1 sequence (Q96SW2 whole entry): as the sequence (Q96SW2 whole entry) above
T1 sequence (Q16531 whole entry partner): as the sequence (Q16531 whole entry partner) above

Dmax [1] | DC50 [1] | Dmax [2] | DC50 [2] | Compound
57% | 253 nM | 92% | 166 nM | N#C[C@H]1CC[C@H](NCc2ccc3c(c2)CN(C2CCC(=O)NC2=O)C3=O)CC1 (some centres unmarked) [Example 80]
45% | 762 nM | 67% | 1300 nM | O=C1CCC(N2Cc3cc(CN[C@H]4CCC[C@@H](O)C4)ccc3C2=O)C(=O)N1 (some centres unmarked) [Example 81]
 | > 10000 nM | 71% | 1300 nM | O=C1CCC(N2Cc3cc(CN[C@@H]4CCC[C@H](O)C4)ccc3C2=O)C(=O)N1 (some centres unmarked) [Example 82]
42% | 84 nM | 69% | 106 nM | O=C1CCC(N2Cc3cc(CNC4CCC5(CCCCC5)CC4)ccc3C2=O)C(=O)N1 (centres unmarked) [Example 83]
55% | 64 nM | 79% | 46 nM | O=C1CCC(N2Cc3cc(CNC4CCC5(CCCC5)CC4)ccc3C2=O)C(=O)N1 (centres unmarked) [Example 84]
44% | 117 nM | 81% | 114 nM | O=C1CCC(N2Cc3cc(CN[C@H]4CC[C@@H](C(F)(F)F)CC4)ccc3C2=O)C(=O)N1 (some centres unmarked) [Example 85]
73% | 70 nM | 83% | 123 nM | CO[C@H]1CC[C@@H](NCc2ccc3c(c2)CN(C2CCC(=O)NC2=O)C3=O)CC1 (some centres unmarked) [Example 86]
86% | 84 nM | 89% | 182 nM | N#C[C@H]1CC[C@@H](NCc2ccc3c(c2)CN(C2CCC(=O)NC2=O)C3=O)CC1 (some centres unmarked) [Example 87]
64% | 297 nM | 91% | 296 nM | O=C1CCC(N2Cc3cc(CNC4CCC5(CCOCC5)CC4)ccc3C2=O)C(=O)N1 (centres unmarked) [Example 88]
42% | 127 nM | 76% | 139 nM | C[C@H]1CC[C@@H](NCc2ccc3c(c2)CN(C2CCC(=O)NC2=O)C3=O)CC1 (some centres unmarked) [Example 89]
88% | 30 nM | 92% | 95 nM | O=C1CCC(N2Cc3cc(CN[C@@H]4CCC[C@H](Nc5ccccc5)C4)ccc3C2=O)C(=O)N1 (some centres unmarked) [Example 90]
63% | 116 nM | 73% | 333 nM | O=C1CCC(N2Cc3cc(CN[C@H]4CCC[C@@H](Nc5ccccc5)C4)ccc3C2=O)C(=O)N1 (some centres unmarked) [Example 91]
61% | 16 nM | 85% | 41 nM | O=C1CCC(N2Cc3cc(CN[C@@H]4CCC[C@H](Oc5ccccc5)C4)ccc3C2=O)C(=O)N1 (some centres unmarked) [Example 92]
29% | 252 nM | 59% | 26 nM | N#CC1CCCC(NCc2ccc3c(c2)CN(C2CCC(=O)NC2=O)C3=O)C1 (stereo not drawn) [Example 93, (1,3-trans)-3-(((2-(2,6-dioxopiperidin-3-yl)-1-oxoisoindolin-5-yl)methyl)amino)cyclohexane-1-carbonitrile]
 | > 10000 nM | 55% | 178 nM | O=C1CCC(N2Cc3cc(CN[C@@H]4CC5CCC4CC5)ccc3C2=O)C(=O)N1 (stereo partly drawn) [Example 94, 3-(5-((((R)-bicyclo[2.2.2]octan-2-yl)amino)methyl)-1-oxoisoindolin-2-yl)piperidine-2,6-dione]
 | > 10000 nM | 49% | 361 nM | O=C1CCC(N2Cc3cc(CN[C@H]4CC5CCC4CC5)ccc3C2=O)C(=O)N1 (stereo partly drawn) [Example 95, 3-(5-((((S)-bicyclo[2.2.2]octan-2-yl)amino)methyl)-1-oxoisoindolin-2-yl)piperidine-2,6-dione]
66% | 3800 nM | 61% | 3800 nM | NC(=O)C1CCCC(NCc2ccc3c(c2)CN(C2CCC(=O)NC2=O)C3=O)C1 (stereo not drawn) [Example 96, (1,3-cis)-3-(((2-(2,6-dioxopiperidin-3-yl)-1-oxoisoindolin-5-yl)methyl)amino)cyclohexane-1-carboxamide]
64% | 5100 nM | 66% | 1800 nM | O=C1CCC(N2Cc3cc(CNC4CCCC(CO)C4)ccc3C2=O)C(=O)N1 (stereo not drawn) [Example 97, 3-(5-((((1,3-trans)-3-(hydroxymethyl)cyclohexyl)amino)methyl)-1-oxoisoindolin-2-yl)piperidine-2,6-dione]
22% | 1500 nM | 39% | 1800 nM | O=C1CCC(N2Cc3cc(CNC4CC5CNC4C5)ccc3C2=O)C(=O)N1 (stereo not drawn) [Example 98, 3-(5-((((1,4,6-cis)-2-azabicyclo[2.2.1]heptan-6-yl)amino)methyl)-1-oxoisoindolin-2-yl)piperidine-2,6-dione]
97% | 2 nM | 97% | 11 nM | O=C1CCC(N2Cc3cc(CN[C@@H]4CCCN(Cc5cccc(Cl)c5)C4)ccc3C2=O)C(=O)N1 (stereo partly drawn) [Example 99, 3-(5-((((R)-1-(3-chlorobenzyl)piperidin-3-yl)amino)methyl)-1-oxoisoindolin-2-yl)piperidine-2,6-dione]
98% | 1 nM | 97% | 6 nM | O=C1CCC(N2Cc3cc(CN[C@@H]4CCCN(Cc5ccc(Cl)cc5)C4)ccc3C2=O)C(=O)N1 (stereo partly drawn) [Example 100, 3-(5-((((R)-1-(4-chlorobenzyl)piperidin-3-yl)amino)methyl)-1-oxoisoindolin-2-yl)piperidine-2,6-dione]
23% | 107 nM | 71% | 157 nM | C[C@@H]1CCCC[C@H]1NCc1ccc2c(c1)CN(C1CCC(=O)NC1=O)C2=O (some centres unmarked) [Example 101]
23% | 164 nM | 69% | 220 nM | C[C@H]1CCCC[C@@H]1NCc1ccc2c(c1)CN(C1CCC(=O)NC1=O)C2=O (some centres unmarked) [Example 102]
97% | 3 nM | 91% | 23 nM | CC1(c2ccccc2)CCC(NCc2ccc3c(c2)CN(C2CCC(=O)NC2=O)C3=O)CC1 (centres unmarked) [Example 103, 3-(5-(((4-methyl-4-phenylcyclohexyl)amino)methyl)-1-oxoisoindolin-2-yl)piperidine-2,6-dione]
82% | 23 nM | 72% | 42 nM | O=C1CCC(N2Cc3cc(CNC4CCC(Oc5ccccc5)CC4)ccc3C2=O)C(=O)N1 (centres unmarked) [Example 104]
75% | 74 nM | 92% | 43 nM | O=C1CCC(N2Cc3cc(CNC4CC5CCC(C5)C4)ccc3C2=O)C(=O)N1 (centres unmarked) [Example 105]
86% | 93 nM | 43% | 381 nM | C[C@@H]1[C@H](NCc2ccc3c(c2)CN(C2CCC(=O)NC2=O)C3=O)CCCN1Cc1ccccc1 (stereo partly drawn) [Example 106, 3-(5-((((2R,3R)-1-benzyl-2-methylpiperidin-3-yl)amino)methyl)-1-oxoisoindolin-2-yl)piperidine-2,6-dione]
38% | 158 nM | 28% | 265 nM | CO[C@H]1CCCC[C@H]1NCc1ccc2c(c1)CN(C1CCC(=O)NC1=O)C2=O (some centres unmarked) [Example 107]
89% | 26 nM | 96% | 16 nM | CO[C@@H]1CCCC[C@@H]1NCc1ccc2c(c1)CN(C1CCC(=O)NC1=O)C2=O (some centres unmarked) [Example 108]
